# Experimental data published in US12077537B2 (Gilead Sciences, Inc., priority 2020, dated 2024).
# System: HIV-IIIb
# Experiment: Antiviral assay in MT4 cells
# Assay type: cell-based
# Conditions: Human immunodeficiency virus 1, MT4, 120 h; MT-4 cells mixed with HIV-IIIb at m.o.i. 0.003; 5 days at 37° C.; CellTiter-Glo luminescence; 50% decrease in signal, a measure of HIV-1 replication
# Method: Antiviral Assay in MT4 Cells For the antiviral assay, 40 μL of a concentration required to achieve a final effective 1× test concentration of 3-fold serially diluted compound in culture medium with 10% FBS was added to each well of a 384-well plate (10 concentrations) in quadruplicate. MT-4 cells were next mixed with HIV-IIIb at an m.o.i of 0.003 for 1 hour, after which time 35 μL of virus/cell mixture (2000 cells) was immediately added to each well containing 40 μL of diluted compound. The plates were then incubated at 37° C. for 5 days. After 5 days of incubation, 25 μl of 2× concentrated CellTiter-Glom Reagent (catalog #G7571, Promega Biosciences, Inc., Madison, WI) was added to each well containing MT-4 cells. Cell lysis was carried out by incubating at room temperature for 10 min and then chemiluminescence was read.
row,SMILES,EC50 [nM]
1,"Cc1[nH]c2ccccc2c1CC(=O)N[C@@H](Cc1ccccc1)c1nc2ccccc2n1-c1ccccc1 [Compound 2, (S)-2-(2-methyl-1H-indol-3-yl)-N-(2-phenyl-1-(1-phenyl-1H-benzo[d]imidazol-2-yl)ethyl)acetamide]",29700
2,"COCCOCCNc1nc2nc([C@H](Cc3cc(F)cc(F)c3)NC(=O)Cn3nc(C(F)F)c4c3C(F)(F)CCC4(F)F)c(-c3ccc(F)c(C(N)=O)c3)cc2s1 [Compound 4, (S)-5-(5-(1-(2-(3-(difluoromethyl)-4,4,7,7-tetrafluoro-4,5,6,7-tetrahydro-1H-indazol-1-yl)acetamido)-2-(3,5-difluorophenyl)ethyl)-2-((2-(2-methoxyethoxy)ethyl)amino)thiazolo[4,5-b]pyridin-6-yl)-2-fluorobenzamide]",154
3,NC(=O)c1cc(-c2cc3sc(N4CCN(C5COC5)CC4)nc3nc2[C@H](Cc2cc(F)cc(F)c2)NC(=O)Cn2nc(C(F)F)c3c2C(F)(F)CCC3(F)F)ccc1F [Compound 5],76.9
4,"CC(C)(O)CNc1nc2nc([C@H](Cc3cc(F)cc(F)c3)NC(=O)Cn3nc(C(F)F)c4c3C(F)(F)CCC4(F)F)c(-c3ccc(F)c(C(N)=O)c3)cc2s1 [Compound 6, (S)-5-(5-(1-(2-(3-(difluoromethyl)-4,4,7,7-tetrafluoro-4,5,6,7-tetrahydro-1H-indazol-1-yl)acetamido)-2-(3,5-difluorophenyl)ethyl)-2-((2-hydroxy-2-methylpropyl)amino)thiazolo[4,5-b]pyridin-6-yl)-2-fluorobenzamide]",98.6
5,"CN1CCN(c2nc3nc([C@H](Cc4cc(F)cc(F)c4)NC(=O)Cn4nc(C(F)F)c5c4C(F)(F)CCC5(F)F)c(-c4ccc(F)c(C(N)=O)c4)cc3s2)CC1 [Compound 7, (S)-5-(5-(1-(2-(3-(difluoromethyl)-4,4,7,7-tetrafluoro-4,5,6,7-tetrahydro-1H-indazol-1-yl)acetamido)-2-(3,5-difluorophenyl)ethyl)-2-(4-methylpiperazin-1-yl)thiazolo[4,5-b]pyridin-6-yl)-2-fluorobenzamide]",127
6,"CC1(O)CN(c2nc3nc([C@H](Cc4cc(F)cc(F)c4)NC(=O)Cn4nc(C(F)F)c5c4C(F)(F)CCC5(F)F)c(-c4ccc(F)c(C(N)=O)c4)cc3s2)C1 [Compound 11, (S)-5-(5-(1-(2-(3-(difluoromethyl)-4,4,7,7-tetrafluoro-4,5,6,7-tetrahydro-1H-indazol-1-yl)acetamido)-2-(3,5-difluorophenyl)ethyl)-2-(3-hydroxy-3-methylazetidin-1-yl)thiazolo[4,5-b]pyridin-6-yl)-2-fluorobenzamide]",162
7,"NC(=O)c1cc(-c2cc3sc(N4CC5(COC5)C4)nc3nc2[C@H](Cc2cc(F)cc(F)c2)NC(=O)Cn2nc(C(F)F)c3c2C(F)(F)CCC3(F)F)ccc1F [Compound 13, (S)-5-(5-(1-(2-(3-(difluoromethyl)-4,4,7,7-tetrafluoro-4,5,6,7-tetrahydro-TH-indazol-1-yl)acetamido)-2-(3,5-difluorophenyl)ethyl)-2-(2-oxa-6-azaspiro[3.3]heptan-6-yl)thiazolo[4,5-b]pyridin-6-yl)-2-fluorobenzamide]",126
8,"NC(=O)c1cc(-c2cc3sc(O)nc3nc2[C@H](Cc2cc(F)cc(F)c2)NC(=O)Cn2nc(C(F)F)c3c2C(F)(F)CCC3(F)F)ccc1F [Compound 15-1, (S)-5-(5-(1-(2-(3-(difluoromethyl)-4,4,7,7-tetrafluoro-4,5,6,7-tetrahydro-1H-indazol-1-yl)acetamido)-2-(3,5-difluorophenyl)ethyl)-2-hydroxythiazolo[4,5-b]pyridin-6-yl)-2-fluorobenzamide]",318
9,"NC(=O)c1cc(-c2cc3scnc3nc2[C@H](Cc2cc(F)cc(F)c2)NC(=O)Cn2nc(C(F)F)c3c2C(F)(F)CCC3(F)F)ccc1F [Compound 15-2, (S)-5-(5-(1-(2-(3-(difluoromethyl)-4,4,7,7-tetrafluoro-4,5,6,7-tetrahydro-1H-indazol-1-yl)acetamido)-2-(3,5-difluorophenyl)ethyl)thiazolo[4,5-b]pyridin-6-yl)-2-fluorobenzamide]",326
10,"N#Cc1cc(-c2cc3scnc3nc2[C@H](Cc2cc(F)cc(F)c2)NC(=O)Cn2nc(C(F)F)c3c2C(F)(F)CCC3(F)F)ccc1F [Compound 15E, (S)—N-(1-(6-(3-cyano-4-fluorophenyl)thiazolo[4,5-b]pyridin-5-yl)-2-(3,5-difluorophenyl)ethyl)-2-(3-(difluoromethyl)-4,4,7,7-tetrafluoro-4,5,6,7-tetrahydro-1H-indazol-1-yl)acetamide]",2640
11,"O=C(Cn1nc(C(F)F)c2c1C(F)(F)CCC2(F)F)N[C@@H](Cc1cc(F)cc(F)c1)c1nc2ncsc2cc1-c1ccc(F)cc1 [Compound 16, (S)-2-(3-(difluoromethyl)-4,4,7,7-tetrafluoro-4,5,6,7-tetrahydro-1H-indazol-1-yl)-N-(2-(3,5-difluorophenyl)-1-(6-(4-fluorophenyl)thiazolo[4,5-b]pyridin-5-yl)ethyl)acetamide]",1020

# The remaining lines, values ahead:
row,EC50 [nM],SMILES
1,160,"NC(=O)c1cc(-c2cc3sc(N4CCOCC4)nc3nc2[C@H](Cc2cc(F)cc(F)c2)NC(=O)Cn2nc(C(F)F)c3c2C(F)(F)CCC3(F)F)ccc1F [Compound 3, (S)-5-(5-(1-(2-(3-(difluoromethyl)-4,4,7,7-tetrafluoro-4,5,6,7-tetrahydro-1H-indazol-1-yl)acetamido)-2-(3,5-difluorophenyl)ethyl)-2-morpholinothiazolo[4,5-b]pyridin-6-yl)-2-fluorobenzamide]"
2,162,"NC(=O)c1cc(-c2cc3sc(NCCN4CCOCC4)nc3nc2[C@H](Cc2cc(F)cc(F)c2)NC(=O)Cn2nc(C(F)F)c3c2C(F)(F)CCC3(F)F)ccc1F [Compound 8, (S)-5-(5-(1-(2-(3-(difluoromethyl)-4,4,7,7-tetrafluoro-4,5,6,7-tetrahydro-1H-indazol-1-yl)acetamido)-2-(3,5-difluorophenyl)ethyl)-2-((2-morpholinoethyl)amino)thiazolo[4,5-b]pyridin-6-yl)-2-fluorobenzamide]"
3,266,"NC(=O)c1cc(-c2cc3sc(NC4CCOC4)nc3nc2[C@H](Cc2cc(F)cc(F)c2)NC(=O)Cn2nc(C(F)F)c3c2C(F)(F)CCC3(F)F)ccc1F (stereo partly drawn) [Compound 9, 5-(5-((S)-1-(2-(3-(difluoromethyl)-4,4,7,7-tetrafluoro-4,5,6,7-tetrahydro-1H-indazol-1-yl)acetamido)-2-(3,5-difluorophenyl)ethyl)-2-((tetrahydrofuran-3-yl)amino)thiazolo[4,5-b]pyridin-6-yl)-2-fluorobenzamide]"
4,384,"NC(=O)c1cc(-c2cc3sc(NC4COC4)nc3nc2[C@H](Cc2cc(F)cc(F)c2)NC(=O)Cn2nc(C(F)F)c3c2C(F)(F)CCC3(F)F)ccc1F [Compound 10, (S)-5-(5-(1-(2-(3-(difluoromethyl)-4,4,7,7-tetrafluoro-4,5,6,7-tetrahydro-1H-indazol-1-yl)acetamido)-2-(3,5-difluorophenyl)ethyl)-2-(oxetan-3-ylamino)thiazolo[4,5-b]pyridin-6-yl)-2-fluorobenzamide]"
5,158,"COCCNc1nc2nc([C@H](Cc3cc(F)cc(F)c3)NC(=O)Cn3nc(C(F)F)c4c3C(F)(F)CCC4(F)F)c(-c3ccc(F)c(C(N)=O)c3)cc2s1 [Compound 12, (S)-5-(5-(1-(2-(3-(difluoromethyl)-4,4,7,7-tetrafluoro-4,5,6,7-tetrahydro-1H-indazol-1-yl)acetamido)-2-(3,5-difluorophenyl)ethyl)-2-((2-methoxyethyl)amino)thiazolo[4,5-b]pyridin-6-yl)-2-fluorobenzamide]"
